From patent US7129078B2, “DNA encoding androgen receptor fragment” (University of North Carolina at Chapel Hill, priority 1988, dated 2006)

Biological target: T1, steroid-binding domain of hAR (human androgen receptor) expressed from cDNA fragment (Homo sapiens, UniProt P10275)
T1 sequence (P10275 669-900 limits assumed): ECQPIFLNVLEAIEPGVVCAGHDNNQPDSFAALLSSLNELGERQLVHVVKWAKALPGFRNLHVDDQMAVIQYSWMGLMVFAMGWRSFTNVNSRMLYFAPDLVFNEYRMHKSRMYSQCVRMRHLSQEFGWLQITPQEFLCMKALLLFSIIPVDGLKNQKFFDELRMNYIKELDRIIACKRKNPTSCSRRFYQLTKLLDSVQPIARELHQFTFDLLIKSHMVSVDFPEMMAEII
Details: unlabeled steroid at 10- and 100-fold excess over 5 nM [3H]dihydrotestosterone

C[C@]12CCC(=O)C=C1CC[C@@H]1[C@@H]2[C@@H](O)C[C@@]2(C)[C@H]1CC[C@]2(O)C(=O)CO [cortisol]
steroid specificity (relative affinity): low affinity
